The subject of data set [1] is Bacillus pumilus. Kind of data set: Antibacterial activity against Bacillus pumilus assessed as inhibition of bacterial growth at MIC by microdilution method. The data set is classed as functional. In general terms: Broth dilution looks for growth in wells or tubes with falling amounts of substance.
Data set [2] deals with Candida albicans. Kind of data set: Antifungal activity against Candida albicans assessed as inhibition of fungal growth at MIC by microdilution method. It is filed as functional.
A further data set concerns Caco-2. Kind of data set: Anticancer activity against human Caco-2 cells assessed as reduction in cell viability by MTT assay. The data set is classed as functional, cell-based.
The next data set relates to Escherichia coli. Kind of data set: Antibacterial activity against Escherichia coli assessed as inhibition of bacterial growth by microdilution method. It is filed as functional.
Data set [3] deals with Bacillus pumilus. Kind of data set: Antibacterial activity against Bacillus pumilus assessed as inhibition of bacterial growth by microdilution method. The data set is classed as functional.
The subject of data set [4] is Aspergillus niger. Kind of data set: Antifungal activity against Aspergillus niger assessed as inhibition of fungal growth at MIC by microdilution method. It is filed as functional.
The test system of data set [5] is Enterobacter cloacae. Kind of data set: Antibacterial activity against Enterobacter cloacae assessed as inhibition of bacterial growth at MIC by microdilution method. It is filed as functional.
For data set [6], the system named is Enterococcus faecalis. Kind of data set: Antibacterial activity against […] assessed as minimum bactericidal concentration by microdilution method. It is filed as functional.
Data set [7] relates to Candida albicans. Kind of data set: […] activity against Candida albicans assessed as […] by microdilution method. It is filed as functional.
For data set [8], the system named is Enterococcus faecalis. Kind of data set: Antibacterial activity against […] assessed as inhibition of bacterial growth at MIC by microdilution method. It is filed as functional.
The nature of data set [9]: Cytotoxicity against African green monkey Vero cells assessed as reduction in cell viability by MTT assay. It is filed as toxicity, cell-based. To be noted: African green monkey (Chlorocebus sabaeus). In general terms: Tetrazolium assays rely on reduction of a dye to a coloured formazan, in cell work by metabolically active cells.
The subject of data set [10] is Enterococcus faecalis. Kind of data set: Antibacterial activity against […] assessed as inhibition of bacterial growth by microdilution method. The data set is classed as functional.
The subject of data set [11] is Candida albicans. Kind of data set: Antifungal activity against Candida albicans assessed as inhibition of fungal growth by microdilution method. The data set is classed as functional.
Data set [12] concerns Aspergillus niger. Kind of data set: Antifungal activity against Aspergillus niger assessed as inhibition of fungal growth by microdilution method. The data set is classed as functional.
Data set [13] relates to Bacillus pumilus. Kind of data set: Antibacterial activity against Bacillus pumilus assessed as minimum bactericidal concentration by microdilution method. The data set is classed as functional.
For data set [14], the system named is Aspergillus niger. Kind of data set: […] activity against Aspergillus niger assessed as […] by microdilution method. It is filed as functional.
The subject of data set [15] is Enterobacter cloacae. Kind of data set: Antibacterial activity against Enterobacter cloacae assessed as inhibition of bacterial growth by microdilution method. It is filed as functional.
Data set [16] concerns Enterobacter cloacae. Kind of data set: Antibacterial activity against Enterobacter cloacae assessed as minimum bactericidal concentration by microdilution method. It is filed as functional.
The next data set concerns A549. Kind of data set: Anticancer activity against human A549 cells assessed as reduction in cell viability incubated for 24 hrs by MTT assay. It is filed as functional, cell-based. Conditions: A549, 24 h.
Data set [17] relates to HepG2. Kind of data set: Anticancer activity against human HepG2 cells assessed as reduction in cell viability incubated for 24 hrs by MTT assay. The data set is classed as functional, cell-based. To be noted: HepG2, 24 h.
The target in data set [18] is NAD-dependent protein deacetylase sirtuin-1 (Homo sapiens, UniProt Q96EB6). Kind of data set: Inhibition of recombinant human SIRT1 expressed in Escherichia coli using Fluor de Lys-SIRT1/2 substrate in presence of NAD+ by fluorescence microplate reader analysis.
A further data set has as its system NUGC. Kind of data set: Anticancer activity against human NUGC cells assessed as cell growth inhibition incubated for 24 hrs. The data set is classed as functional, cell-based.
Data set [19] can be described thus: Cytotoxicity against human WI-38 cells assessed as cell growth inhibition incubated for 24 hrs. The data set is classed as toxicity, cell-based.
A further data set has as its system DLD-1. Kind of data set: Anticancer activity against human DLD-1 cells assessed as cell growth inhibition incubated for 24 hrs. The data set is classed as functional, cell-based. Conditions: DLD-1, 24 h.
Data set [20] relates to HepG2. Kind of data set: Anticancer activity against human HepG2 cells assessed as cell growth inhibition incubated for 24 hrs. Conditions: HepG2, 24 h. The data set is classed as functional, cell-based.
Data set [21] relates to MCF7. Kind of data set: Anticancer activity against human MCF7 cells assessed as cell growth inhibition incubated for 24 hrs. It is filed as functional, cell-based. To be noted: MCF7, 24 h.
The next data set deals with WI-38. Kind of data set: Cytotoxicity against human WI-38 cells assessed as lethality incubated for 24 hrs. It is filed as toxicity, cell-based. Conditions: wi-38, 24 h.
A further data set concerns HONE1 cell line. Kind of data set: Anticancer activity against human HONE1 cell line assessed as cell growth inhibition incubated for 24 hrs. The data set is classed as functional, cell-based. To be noted: HONE1, 24 h.
The next data set relates to HA22T cell line. Kind of data set: Anticancer activity against human HA22T cells assessed as cell growth inhibition incubated for 24 hrs. The data set is classed as functional, cell-based.
Another data set concerns U-937. Kind of data set: Induction of apoptosis in human U-937 cells assessed as total apoptotic cells at 50 uM incubated for 50 hrs by FACS analysis. It is filed as functional. (A flow cytometer gives signals particle by particle.)
For data set [22], the system named is MCF7. Kind of data set: cells. The data set is classed as functional, cell-based. Conditions: Homo sapiens, MCF7, 96 h.
The target in data set [23] is Poly [ADP-ribose] polymerase 1 (Homo sapiens, UniProt P09874). Kind of data set: Inhibition of PARP1 (unknown origin) incubated for 1 hrs by colorimetric analysis.
The next data set relates to HCT-116. Kind of data set: Anticancer activity against human HCT-116 cells assessed as reduction in cell viability incubated for 96 hrs by MTT assay. The data set is classed as functional, cell-based. Conditions: HCT-116, 96 h.
Data set [24] concerns MCF7. Kind of data set: Anticancer activity against human MCF7 cells assessed as reduction in cell viability incubated for 24 hrs by MTT assay. It is filed as functional, cell-based. To be noted: MCF7, 24 h.
The next data set deals with SK-OV-3. Kind of data set: Anticancer activity against human SK-OV-3 cells assessed as reduction in cell viability incubated for 24 hrs by MTT assay. The data set is classed as functional, cell-based. Conditions: SK-OV-3, 24 h.

Each structure is given as a SMILES string. pIC50: −log10 of the molar value. Converted amounts (≈) assume the structure as drawn.

Chain of NAD-dependent protein deacetylase sirtuin-1 (Q96EB6 whole entry): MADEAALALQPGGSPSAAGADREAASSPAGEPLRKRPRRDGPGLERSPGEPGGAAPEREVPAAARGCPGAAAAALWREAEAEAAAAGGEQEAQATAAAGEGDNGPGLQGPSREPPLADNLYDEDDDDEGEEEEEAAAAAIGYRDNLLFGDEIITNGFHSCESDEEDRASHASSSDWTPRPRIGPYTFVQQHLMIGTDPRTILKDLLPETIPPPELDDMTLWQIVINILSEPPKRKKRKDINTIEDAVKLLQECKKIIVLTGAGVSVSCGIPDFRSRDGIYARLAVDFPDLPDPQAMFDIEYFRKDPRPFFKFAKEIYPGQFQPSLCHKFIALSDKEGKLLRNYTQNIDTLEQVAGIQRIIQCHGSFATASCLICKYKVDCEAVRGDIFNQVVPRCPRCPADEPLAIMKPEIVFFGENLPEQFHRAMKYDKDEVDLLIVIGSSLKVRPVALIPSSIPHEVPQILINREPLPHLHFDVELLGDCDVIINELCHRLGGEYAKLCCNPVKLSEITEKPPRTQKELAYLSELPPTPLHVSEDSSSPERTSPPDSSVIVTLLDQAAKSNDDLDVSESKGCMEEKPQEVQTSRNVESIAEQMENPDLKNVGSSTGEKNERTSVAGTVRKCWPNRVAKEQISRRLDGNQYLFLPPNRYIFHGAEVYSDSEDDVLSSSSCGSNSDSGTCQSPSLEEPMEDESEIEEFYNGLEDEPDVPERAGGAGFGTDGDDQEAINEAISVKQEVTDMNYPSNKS
Chain of Poly [ADP-ribose] polymerase 1 (P09874 whole entry): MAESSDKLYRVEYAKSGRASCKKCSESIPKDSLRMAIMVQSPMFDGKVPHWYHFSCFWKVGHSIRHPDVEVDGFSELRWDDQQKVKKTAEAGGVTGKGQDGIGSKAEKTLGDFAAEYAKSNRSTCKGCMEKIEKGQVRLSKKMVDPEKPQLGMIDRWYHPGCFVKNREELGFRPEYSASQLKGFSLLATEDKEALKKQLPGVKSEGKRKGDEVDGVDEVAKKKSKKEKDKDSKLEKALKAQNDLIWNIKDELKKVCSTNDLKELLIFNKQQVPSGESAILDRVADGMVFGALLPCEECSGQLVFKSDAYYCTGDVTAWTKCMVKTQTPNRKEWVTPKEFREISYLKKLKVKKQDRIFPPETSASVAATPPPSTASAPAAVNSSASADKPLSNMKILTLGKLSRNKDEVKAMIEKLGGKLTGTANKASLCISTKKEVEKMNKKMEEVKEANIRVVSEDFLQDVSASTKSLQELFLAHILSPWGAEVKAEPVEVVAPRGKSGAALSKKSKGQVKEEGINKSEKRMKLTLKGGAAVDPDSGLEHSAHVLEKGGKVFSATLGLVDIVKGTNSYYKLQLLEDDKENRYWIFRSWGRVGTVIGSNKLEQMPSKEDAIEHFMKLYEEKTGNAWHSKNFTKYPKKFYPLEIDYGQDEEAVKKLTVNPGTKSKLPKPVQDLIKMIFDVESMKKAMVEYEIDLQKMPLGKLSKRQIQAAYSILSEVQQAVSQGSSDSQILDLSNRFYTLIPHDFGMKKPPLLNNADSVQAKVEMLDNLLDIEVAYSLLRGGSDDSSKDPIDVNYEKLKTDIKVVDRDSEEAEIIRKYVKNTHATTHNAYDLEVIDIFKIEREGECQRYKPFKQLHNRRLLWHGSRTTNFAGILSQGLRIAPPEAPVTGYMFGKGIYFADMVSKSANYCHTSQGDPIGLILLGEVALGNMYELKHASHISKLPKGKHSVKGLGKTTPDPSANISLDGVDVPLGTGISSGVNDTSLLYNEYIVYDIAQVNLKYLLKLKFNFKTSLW

As usually defined, the IC50 is the concentration that inhibits the measured activity by half. Usually MIC stands for the lowest concentration that inhibits growth of the organism. For the compound `COc1ccc(N2C(=O)C3C(c4ccccc4)C(C#N)=C(N)OC3N(c3ccc(OC)cc3)C2=S)cc1` (stereo unspecified), the “inhibition (INH)” value in the data set with Bacillus pumilus [1] was determined as 51.3%; in the data set with Candida albicans [2] it was 85.5%; in the data set on Aspergillus niger [4], 88.3%; with Enterobacter cloacae [5] it was 50.5%; in the data set on Enterococcus faecalis [8] it was 78.6%. Also, the half-inhibitory concentration (IC50) in the data set on Caco-2 was 65.9 µg/mL (≈ 129 µM); in data set [9], 138 µg/mL (≈ 269 µM). For the same compound, the minimal inhibitory concentration (MIC) is 3.91 µg/mL (≈ 7.63 µM) in the data set with Escherichia coli; 15.6 µg/mL (≈ 30.4 µM) in the data set with Bacillus pumilus [3]; 7.81 µg/mL (≈ 15.2 µM) with Enterococcus faecalis [10]; 31.2 µg/mL with Candida albicans [11]; 62.5 µg/mL in the data set with Aspergillus niger [12]; 31.2 µg/mL (≈ 60.9 µM) in the data set with Enterobacter cloacae [15]. The MBC in the data set on Enterococcus faecalis [6] was 31.3 µg/mL (≈ 61.1 µM); in the data set on Candida albicans [7], 125 µg/mL (≈ 244 µM); with Bacillus pumilus [13], 62.5 µg/mL (≈ 122 µM); in the data set on Aspergillus niger [14] it was 125 µg/mL (≈ 244 µM); with Enterobacter cloacae [16], 15.6 µg/mL (≈ 30.4 µM).

What is called pIC50 is the IC50 on a negative log10 scale, so that one unit is a factor of ten. With `CCCCCCCCn1cc(Cn2c(C)nc3c(c2=O)C(c2ccccc2)C(C(=O)OCC)=C(C)O3)nn1` (stereo unspecified), the figures for the pIC50 in the data set with A549 and with HepG2 [17] were 5.44 and 4.16, respectively.

Consider `O=C1N=C2Oc3ccccc3CC2C(=O)N1c1ccccc1` (stereo unspecified), for which the negative logarithm of the IC50 (pIC50) in data set [18] is 5.38.

The term LC50 denotes the concentration lethal to half of the exposed cells or organisms. As for `N#CC1=C(N)C2C(=NC(NNc3ccccc3)=NC2c2ccc(Cl)cc2)OC1=O` (stereo unspecified), the negative logarithm of the IC50 (pIC50) in the data set on NUGC was 7.26; in the data set with DLD-1 it was 6.84; with HepG2 [20] it was 6.28; in the data set on MCF7 [21] it was 6.55; in the data set on HONE1 cell line, 6.27. Further, in data set [19], the IC50 at 24 h worked out at 222 nM. Also, the 50% lethal concentration (LC50) with WI-38 amounted to 18.38 µg/mL (≈ 45.2 µM).

`N#CC1=C(N)C2C(=NC(NN)=NC2c2ccc(Cl)cc2)OC1=O` (stereo unspecified): the pIC50 was 6.48 in the data set on NUGC; 6.22 with DLD-1; 6.58 in the data set on HepG2 [20]; 6.46 in the data set with MCF7 [21]; 6.70 in the data set with HONE1 cell line; 6.55 with HA22T cell line.

Take `O=c1nc2oc3ccc4ccccc4c3cc-2c(=O)n1-c1ccccc1`: the Activity in the data set on U-937 came out at 28.4%.

On to `Nc1cc(-c2ccc([N+](=O)[O-])cc2)nc2c1C(c1cccs1)c1c([nH]c(=O)[nH]c1=O)O2` (stereo unspecified), for which the pIC50 in the data set on MCF7 [22] was 6.18; in data set [23], 7.80; with HCT-116, 5.56.

As for `CCOC(=O)C1=C(C)Oc2nc(C)n(Cc3cn(-c4ccc([N+](=O)[O-])cc4)nn3)c(=O)c2C1c1ccccc1` (stereo unspecified), the pIC50 is 6.16 in the data set with A549, 4.15 with MCF7 [24] and 4.02 in the data set with SK-OV-3.

The values are drawn from ChEMBL document CHEMBL5241112, “Insights into the recent progress in the medicinal chemistry of pyranopyrimidine analogs” (RSC Med Chem, 2022).
